# Test system: 84 genes related to inflammatory and autoimmune processes
# Assay: Mouse Inflammatory Response and Autoimmunity PCR Array, whole brain
# Type: in vivo
# Protocol: Frozen, pulverized whole brain tissue was processed for RNA extraction from a separate cohort of treated and untreated injured animals on days 1 post-injury(CN-105, n = 4; vehicle, n = 3; Control(sham-operated), n = 3). Total RNA was extracted from frozen, pulverized whole brain tissue using RNeasy Lipid Tissue Mini Kit(Qiagen, Valencia, CA). RNA quantity and quality was assessed with the NanoDrop ND-1000 spectrophotometer(NanoDrop Technologies, Inc., Wilmington, DE) and by agarose gel electrophoresis. Only samples with a 260/280 ratio between 1.9–2.1, and a 260/230 ratio greater than 2.0, were further processed. First strand complementary DNA(cDNA) was generated from 2 μg total RNA using the RT[2] First strand kit(SABiosciences, Frederick, MD.)
# Gene expression was measured using the Mouse Inflammatory Response and Autoimmunity PCR Array(SABiosciences, Frederick, MD), which profiles the expression of 84 genes related to inflammatory and autoimmune processes. RT-PCR was performed according to manufacturer’s instructions Quality of the cDNA and PCR efficiency was verified by housekeeping genes and RT-PCR controls included in the PCR Array.
# Raw RT-PCR data were analyzed using the Web-Based PCR Array Data Analysis software(SABiosciences). ΔCt values and ΔΔCt - based fold-change were calculated from raw threshold cycle data, using beta-actin and glyceraldehyde 3-phosphate dehydrogenase(GAPDH) as internal standards for normalization. Fold changes were then normalized against sham-operated controls.
# [1] = TBI CN-105 vs TBI vehicle, brain 24 h post TBI
# [2] = TBI CN-105 vs sham vehicle, brain 24 h
substance,measurement,setting,value
Ac-VSRRR-amide [CN-105],Ccl24 Fold Change,[1],−14.8
same,Ccl25 Fold Change,[1],−1.2
same,Ccr1 Fold Change,[1],2.3
same,Ccr2 Fold Change,[1],−48.3
same,Ccr3 Fold Change,[1],5.4
same,Ccr4 Fold Change,[1],1.2
same,Ccr7 Fold Change,[1],1.2
same,Cd40 Fold Change,[1],−7.8
same,Cd40lg Fold Change,[1],−1.2
same,Cebpb Fold Change,[1],−1.5
same,Crp Fold Change,[1],1.2
same,Csf1 Fold Change,[1],−2.0
same,Cxcl1 Fold Change,[1],−8.3
same,Cxcl2 Fold Change,[1],4.8
same,Cxcl3 Fold Change,[1],2.4
same,Cxcl5 Fold Change,[1],6257
same,Cxcl9 Fold Change,[1],−70.3
same,Cxcl10 Fold Change,[1],−47.9
same,Cxcl11 Fold Change,[1],2.6
same,Cxcr4 Fold Change,[1],−7.3
same,Fasl Fold Change,[1],−2.0
same,Flt3l Fold Change,[1],−1.4
same,Fos Fold Change,[1],−1.2
same,Hdac4 Fold Change,[1],−1.1
same,Ifng Fold Change,[1],−12.9
same,Il1a Fold Change,[1],−10.1
same,Il1b Fold Change,[1],−1.6
same,Il1f10 Fold Change,[1],3.8
same,Il1r1 Fold Change,[1],3.5
same,Il1rap Fold Change,[1],−2.2
same,Il1rn Fold Change,[1],−1.6
same,Il6 Fold Change,[1],−29.8
same,Il6ra Fold Change,[1],−2.9
same,Il7 Fold Change,[1],515
same,Il8ra Fold Change,[1],1.2
same,Il8rb Fold Change,[1],1.1
same,Il9 Fold Change,[1],1.2
same,Il10 Fold Change,[1],−9.3
same,Il10rb Fold Change,[1],2.6
same,Il18 Fold Change,[1],7.2
same,Il18rap Fold Change,[1],−3.6
same,Il22 Fold Change,[1],−1.7
same,Il22ra2 Fold Change,[1],10895
same,Il23a Fold Change,[1],18.5
same,Il23r Fold Change,[1],5.8
same,Itgb2 Fold Change,[1],−1.5
same,Kng1 Fold Change,[1],−1.1
same,Lta Fold Change,[1],−1.2
same,Ltb Fold Change,[1],3.6
same,Ly96 Fold Change,[1],61.2
same,Myd88 Fold Change,[1],−273
same,Nfatc3 Fold Change,[1],10044
same,Nfkb1 Fold Change,[1],−16.6
same,Nr3c1 Fold Change,[1],13.7
same,Ripk2 Fold Change,[1],−1.1
same,Tirap Fold Change,[1],−1.5
same,Tlr1 Fold Change,[1],−1.4
same,Tlr2 Fold Change,[1],1.0
same,Tlr3 Fold Change,[1],1.3
same,Tlr4 Fold Change,[1],−9.0
same,Tlr5 Fold Change,[1],2.5
same,Tlr6 Fold Change,[1],−170
same,Tlr7 Fold Change,[1],19.0
same,Tnf Fold Change,[1],6.9
same,Tnfsf14 Fold Change,[1],−2.8
same,Tollip Fold Change,[1],−2.9
same,Bcl6 fold change TBI-CN-105/S-v,[2],11.2
same,C3ar1 fold change TBI-CN-105/S-v,[2],34.9
same,C3 fold change TBI-CN-105/S-v,[2],4.6
same,C4b fold change TBI-CN-105/S-v,[2],163.3
same,Ccl2 fold change TBI-CN-105/S-v,[2],42.3
same,Ccl3 fold change TBI-CN-105/S-v,[2],17.7
same,Ccl4 fold change TBI-CN-105/S-v,[2],32.3
same,Ccl5 fold change TBI-CN-105/S-v,[2],3.8
same,Ccl7 fold change TBI-CN-105/S-v,[2],2.9
same,Ccl8 fold change TBI-CN-105/S-v,[2],5.6
same,Ccl11 fold change TBI-CN-105/S-v,[2],2253.1
same,Ccl12 fold change TBI-CN-105/S-v,[2],3.7
same,Ccl17 fold change TBI-CN-105/S-v,[2],−2.6
same,Ccl19 fold change TBI-CN-105/S-v,[2],−5.8
same,Ccl20 fold change TBI-CN-105/S-v,[2],3086.8
same,Ccl22 fold change TBI-CN-105/S-v,[2],176.2
same,Ccl24 fold change TBI-CN-105/S-v,[2],159.1
same,Ccl25 fold change TBI-CN-105/S-v,[2],16.9
same,Ccr1 fold change TBI-CN-105/S-v,[2],−2.5
same,Ccr2 fold change TBI-CN-105/S-v,[2],5.6
same,Ccr3 fold change TBI-CN-105/S-v,[2],66.6
same,Ccr4 fold change TBI-CN-105/S-v,[2],7945.9
same,Ccr7 fold change TBI-CN-105/S-v,[2],283.2
same,Cd40 fold change TBI-CN-105/S-v,[2],38.8
same,Cebpb fold change TBI-CN-105/S-v,[2],3.5
same,Csf1 fold change TBI-CN-105/S-v,[2],1.1
same,Cxcl1 fold change TBI-CN-105/S-v,[2],29.4
same,Cxcl2 fold change TBI-CN-105/S-v,[2],25.5
same,Cxcl3 fold change TBI-CN-105/S-v,[2],54032.0
same,Cxcl5 fold change TBI-CN-105/S-v,[2],957.4
same,Cxcl9 fold change TBI-CN-105/S-v,[2],32.2
same,Cxcl10 fold change TBI-CN-105/S-v,[2],−1.7
same,Cxcl11 fold change TBI-CN-105/S-v,[2],372.3
same,Cxcr4 fold change TBI-CN-105/S-v,[2],21.0
same,Fasl fold change TBI-CN-105/S-v,[2],3.2
same,Flt3l fold change TBI-CN-105/S-v,[2],−2.8

# Reference: PMC5399447, “Neuroprotective pentapeptide CN-105 is associated with reduced sterile inflammation and improved functional outcomes in a traumatic brain injury murine model” (Scientific Reports, 2017)
